# Laboratory results reported in US8686045B2 (priority 2005, dated 2014).
# “Also recorded” adds a separate entry of the source. Where a SMILES comes first, the peptide text is derived from it. [ ]: non-standard residue; d: D form. pGlu = O=C1CC[CH](C(=O)O)N1
# Experiments:
# [1] = tested on: human SH-SY5Y neuroblastoma cells
# Source text: Exposure of SH-SY5Y cells to 1-methyl-4-phenylpyridinium (MPP^+) with resulting cell death is a well-characterized model of Parkinson's disease (PD). […] BDNF has also been previously shown to protect dopaminergic neurons. Further, MPP^+ causes a PD-like condition in primates.
# For the Parkinson's disease model assays, human SH-SY5Y cells were used after terminal differentiation into a dopaminergic phenotype (Presgraves. S. P., et al. (2004) Exp Neruol 190, 157-170). Human SH-SY5Y neuroblastoma cells were propagated to confluence in Dulbecco's Modified Eagle's media (DMEM) supplemented with 10% fetal calf serum, 100 μg/mL penicillin, 100 μg/mL streptomycin, 0.25 μg/mL amphotericin B, and […] non-essential amino acids and then sub-cultured for differentiation. For differentiation, the cells were incubated in same media containing 10 μM retinoic acid for 3 days; then the media was removed and replaced with media containing 160 nM of the phorbol ester 12-O-tetradecanoyl-phorbol-13-acetate (TPA) for 3 days of differentiation. The cells were then administered a range dose of BD2-4 or BDNF (1×10^−12 M to […]) in DMEM for 30 mins for three days prior to addition of 100 μM MPP^+. Following transfer of MPP^+ to the media, sister cultures were tested at 6, 12, 24, and 48 hrs for the cytotoxicity of MPP^+ as measured by the MTT and lactate dehydrogenase method (LDH) assays which accurately measure different aspects of cell death. In addition, the neuroprotective effects of a fixed dose of BD2-4 and BDNF on MPP^+ induced cell death were tested for in the presence and absence of TrkB inhibitor K252a (200 nM).
# DARP32-positive neurons = experiment: Quinolinic acid-induced death, DARP32-positive neurons only; format: cell-based, mouse
# Description: FIG. 6C is a bar graph of the results of a study similar to that described for FIG. 6B only using Darp32-positive neurons.
# A study similar to the one shown in FIG. 6B was conducted in which only DARP32-positive neurons were assessed. DARP32-positive neurons represent the population within the striatum that are particularly vulnerable in HD.
# [2] = tested on: mouse E16 striatal neurons
# Source text: Bars indicate mean±s.e.m.
# CM represents culture medium and QUIN represents quinolinic acid. Bars indicate mean±s.e.m and *** indicates p<0.005 student t test.
# The K252a inhibitor is a well-characterized inhibitor of TrkB receptor activation.
# TrkC = molecular target: T1, TrkC (Homo sapiens, UniProt Q16288); experiment: Trk phosphorylation at Y490, Western blot, NIH3T3 cells expressing TrkC; format: cell-based
# T1 construct: expressed in transfected cells; host or cells: NIH3T3
# Description: FIG. 5B is a digital composite image of Western blots monitoring TrkC activation as indicated by promotion of Trk phosphorylation at Y490 in NIH3T3 cells expressing TrkC. […] CM represents culture medium.
# (§1) Western blots were performed as described previously (Yang, T. et al. (2003) J Neurosci 23, 3353-3363). Western blot signals were detected using the ECL Chemiluminescence System obtained by Amersham (Piscataway, N.J., United States of America) (Yang, T. et al. (2003) J Neurosci 23, 3353-3363). To detect the presence of anti-Trk antibodies, blots were probed with horseradish peroxidase-linked goat anti-rabbit IgG obtained from Amersham/Pharmacia Biotech (Piscataway, N.J., United States of America). Signals were detected by the ECL chemiluminescence system obtained from Amersham Biosciences (Piscataway, N.J., United States of America). To control for variation in protein loading, the blot was stripped and reprobed with β-actin monoclonal antibody obtained from Sigma (St. Louis, Mo., United States of America).
# (§2) In order to assess the interactions of the BDNF loop 2 mimetic compounds with TrkB receptors, the ability of Compound 4 to activate TrkA, TrkB, and TrkC was compared in a series of Western blotting experiments.
# In FIG. 5B, NIH3T3 cells expressing TrkC were used. The bottom panel indicates the total amount of TrkC present by probing with anti-TrkC antibodies.
# [3] = tested on: E16 mouse hippocampal neurons; experiment: Hippocampal neuron survival (morphology plus MTT conversion, 48 h); format: cell-based; details: for EC50 / Emax: Mus musculus, Hippocampal neuron, 48 h; for EC50: read-out: EC50 of neuron survival dose-response; for Emax: read-out: intrinsic activity
# Description: FIGS. 3A-3E are a series of neuron survival dose response curves of BDNF (FIG. 3A), Compound 1 (also referred to as BD2-1, FIG. 3B) Compound 2 (also referred to as BD2-2, FIG. 3C), Compound 3 (also referred to as BD2-3, FIG. 3D), and Compound 4 (also referred to as BD2-4, FIG. 3E) using Mouse E16 hippocampal neurons. Survival was determined as the total number of cells in each well that were both morphologically intact and filled with blue formazan MTT conversion product (Longo, F. M., Manthorpe, M. Xie, Y. M., and Varon, S. (1997) J Neurosci Res. 48, 1-17). Counts were normalized to survival achieved with 25 ng/mL BDNF. Survival was assessed at 48 hrs.
# Hippocampal neurons were prepared from E16-17 mouse embryos as previously described (Yang, T. et al. (2003) J Neurosci 23, 3353-3363). Low density cultures were initiated in poly-L-lysine coated A/2 plates by adding 25 μl of cell suspension (2000 neurons/well; 12,500 cells/cm^2), 25 μl of DMEM containing 10% FBS, and different concentrations of recombinant BDNF, NGF, or TrkB-binding compounds to each well.
# After 48 hours in culture, cell survival was assessed as previously described (Longo, F. M., Manthorpe, M., Xie, Y. M., Varon, S. (1997) J Neurosci Res 48, 1-17) using a combination of standard morphological criteria along with visual determination of whether a given cell converted MTT to its blue formazan product. Briefly, the number of surviving neurons was determined by counting the total number of cells in each well that were both morphologically intact and filed with blue product (Longo F. M., Manthorpe. M., Xie, Y. M. Varon, S. (1997) J Neurosci Res 48, 1-17). For each neurotrophin or compound concentration, duplicate wells were counted and the resulting values averaged. […] Counts were normalized to survival achieved with 25 ng/ml BDNF or to baseline survival. Fitting of dose-responsive curves was performed with SIGMAPLOT™ obtained from SYSTAT Software Inc. (Richmond, Calif., United States of America).
# In order to understand the mechanisms of action of the BDNF loop 2 mimetics and to test the conjecture that they work via the targeted receptor, TrkB, the dose-dependent relationships of the survival-promoting activities of the mimetics was compared to BDNF using embryonic hippocampal neurons in culture conditions in which BDNF promotes neural survival. In the cultures, neurotrophic activity was mediated by BDNF principally through TrkB and p75^NTR, as they express little TrkA (Brann, A. B., et al. (1999) J Neurosci 19, 8199-8206; Bui, N. T., et al. (2002) J Neurochem 81, 594-605).
# TrkB = molecular target: T2, TrkB (Homo sapiens, UniProt Q16620); experiment: Trk phosphorylation at Y490, Western blot, NIH3T3 cells expressing TrkB; format: cell-based
# T2 construct: expressed in transfected cells; host or cells: NIH3T3
# Description: (§3) CM represents culture medium.
# as §1, §2
# (§4) In the bottom two panels of FIG. 5A, NIH3T3 cells expressing TrkA were used.
# TrkA = molecular target: T3, TrkA (Homo sapiens, UniProt P04629); experiment: Trk phosphorylation at Y490, Western blot, NIH3T3 cells expressing TrkA; format: cell-based
# T3 construct: expressed in transfected cells; host or cells: NIH3T3
# Description: as §3, §1, §2, §4
# [4] = tested on: E16-17 hippocampal neurons; experiment: Aβ oligomer-induced neuronal degeneration (Alzheimer's disease model); format: cell-based, mouse
# Description: Neuronal cell survival in culture medium (CM) and with the addition of 10 μM AβScrambled oligomer are shown in the two bars on the left-hand side of the graph […]. Cells were also treated with 10 μM Aβ1-42 alone or in combination with NGF (100 ng/mL), NGF mimetic LM11A-31 (100 nM), a combination of NGF and LM11A-31, Compound 4 (BD2-4, 500 nM), Compound 24 (BD2-24, 500 nM), or either 20 or 100 ng/mL BDNF, as indicated under each bar. […] Mean+SE are shown and ***p<0.001 for survival above CM baseline.
# The ability of the BDNF mimetics to prevent Aβ-induced neuronal degeneration was tested as a model of the compounds' ability to treat Alzheimer's disease. E16-17 hippocampal neurons were matured for 6 days and then incubated for 3 days with the indicated combinations of Aβ oligomer preparations (Dahigren, K. N., et al. (2002) J Biol Chem 277, 32046-32053), neurotrophins and neurotrophin mimetics. Following the three day incubation, neuronal survival was assessed using standard morphological criteria (Massa, S. M., et al. (2006) J Neurosci 26, 5288-5300.).
# [5] = tested on: E16 mouse hippocampal neurons; experiment: Hippocampal neuron survival (morphology plus MTT conversion, 48 h); format: cell-based; details: in the presence of a maximally effective BDNF concentration (50 ng/mL)
# T3 sequence (P04629 33-796, species assumed): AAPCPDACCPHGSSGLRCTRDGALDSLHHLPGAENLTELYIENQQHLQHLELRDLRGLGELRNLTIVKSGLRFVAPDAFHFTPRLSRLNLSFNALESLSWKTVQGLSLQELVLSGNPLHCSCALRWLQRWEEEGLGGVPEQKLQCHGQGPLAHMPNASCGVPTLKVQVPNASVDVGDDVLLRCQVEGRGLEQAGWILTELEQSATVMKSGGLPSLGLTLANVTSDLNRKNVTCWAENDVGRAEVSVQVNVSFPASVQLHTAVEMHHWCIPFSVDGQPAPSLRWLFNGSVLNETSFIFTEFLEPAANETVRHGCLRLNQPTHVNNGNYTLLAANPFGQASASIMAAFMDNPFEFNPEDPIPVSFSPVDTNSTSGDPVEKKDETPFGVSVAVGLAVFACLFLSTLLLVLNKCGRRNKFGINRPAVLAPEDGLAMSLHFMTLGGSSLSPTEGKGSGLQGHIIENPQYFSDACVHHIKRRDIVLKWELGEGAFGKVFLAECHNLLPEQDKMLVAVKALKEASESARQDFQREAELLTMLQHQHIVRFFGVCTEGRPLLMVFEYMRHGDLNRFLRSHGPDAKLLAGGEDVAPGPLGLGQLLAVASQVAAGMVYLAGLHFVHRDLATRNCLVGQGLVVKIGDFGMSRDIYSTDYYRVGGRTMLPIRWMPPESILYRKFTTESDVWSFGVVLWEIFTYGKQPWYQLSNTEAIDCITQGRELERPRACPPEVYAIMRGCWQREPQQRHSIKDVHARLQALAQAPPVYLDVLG
# T1 sequence (Q16288 32-839, species assumed): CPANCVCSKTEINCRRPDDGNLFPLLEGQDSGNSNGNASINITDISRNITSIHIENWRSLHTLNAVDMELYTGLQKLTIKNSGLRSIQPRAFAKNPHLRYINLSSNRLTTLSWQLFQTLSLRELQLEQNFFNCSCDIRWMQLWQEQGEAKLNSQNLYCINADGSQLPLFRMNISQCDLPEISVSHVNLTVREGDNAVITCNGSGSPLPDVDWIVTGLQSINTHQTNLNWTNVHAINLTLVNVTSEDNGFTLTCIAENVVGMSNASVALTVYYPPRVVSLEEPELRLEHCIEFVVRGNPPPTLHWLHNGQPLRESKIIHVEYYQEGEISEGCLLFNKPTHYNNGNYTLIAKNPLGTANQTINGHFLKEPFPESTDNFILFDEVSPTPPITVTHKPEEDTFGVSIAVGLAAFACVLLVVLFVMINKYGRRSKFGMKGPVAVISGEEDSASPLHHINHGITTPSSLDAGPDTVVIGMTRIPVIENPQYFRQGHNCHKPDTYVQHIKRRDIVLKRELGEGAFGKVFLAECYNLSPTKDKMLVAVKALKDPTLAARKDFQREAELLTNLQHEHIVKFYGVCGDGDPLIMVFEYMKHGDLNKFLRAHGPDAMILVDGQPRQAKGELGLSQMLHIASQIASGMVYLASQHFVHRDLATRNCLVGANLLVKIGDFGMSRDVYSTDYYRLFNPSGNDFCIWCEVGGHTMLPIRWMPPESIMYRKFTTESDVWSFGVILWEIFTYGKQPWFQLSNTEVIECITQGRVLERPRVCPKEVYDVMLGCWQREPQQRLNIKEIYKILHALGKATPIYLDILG
# T2 sequence (Q16620 32-822, species assumed): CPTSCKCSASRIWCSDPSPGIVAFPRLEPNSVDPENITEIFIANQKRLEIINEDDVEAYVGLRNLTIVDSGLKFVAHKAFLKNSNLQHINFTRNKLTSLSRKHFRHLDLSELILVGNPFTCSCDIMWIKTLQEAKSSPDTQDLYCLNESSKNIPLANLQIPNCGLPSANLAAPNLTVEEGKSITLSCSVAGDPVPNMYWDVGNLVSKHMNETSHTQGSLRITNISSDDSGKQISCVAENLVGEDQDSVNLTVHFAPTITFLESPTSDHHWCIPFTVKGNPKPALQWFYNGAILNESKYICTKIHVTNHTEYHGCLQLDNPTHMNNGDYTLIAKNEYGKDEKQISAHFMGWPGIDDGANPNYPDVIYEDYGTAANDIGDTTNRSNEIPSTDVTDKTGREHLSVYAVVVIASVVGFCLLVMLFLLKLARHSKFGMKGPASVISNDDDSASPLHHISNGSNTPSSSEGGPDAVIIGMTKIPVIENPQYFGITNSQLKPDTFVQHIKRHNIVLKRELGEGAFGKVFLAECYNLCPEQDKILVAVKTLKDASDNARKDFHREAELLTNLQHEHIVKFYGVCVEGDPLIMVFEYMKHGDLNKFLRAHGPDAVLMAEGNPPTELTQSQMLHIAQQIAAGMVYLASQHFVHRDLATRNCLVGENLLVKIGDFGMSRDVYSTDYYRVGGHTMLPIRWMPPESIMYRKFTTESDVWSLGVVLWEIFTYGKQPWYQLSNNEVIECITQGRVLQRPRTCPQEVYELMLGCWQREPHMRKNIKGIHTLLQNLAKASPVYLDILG
compound,measurement,setting,value
"C[n+]1ccc(-c2ccccc2)cc1 [MPP^+, 1-methyl-4-phenylpyridinium]","cell death, toxin alone",[1]; MPP+ 100 μM,promotes death of essentially all cells
COC(=O)[C@@]1(O)C[C@H]2O[C@]1(C)n1c3ccccc3c3c4c(c5c6ccccc6n2c5c31)C(=O)NC4 [Compound K252a],effect of K252a on prevention of cell death by BDNF and BD2-4,DARP32-positive neurons; DARP32-positive neurons,decreased the ability of BDNF and BD2-4 to prevent cell death
same,effect of K252a on quinolinic acid-induced death,[2]; K252a without BDNF or BD2-4,no effect on quinolinic acid-induced death
same,effect of K252a on prevention of death by BDNF and BD2-4,[2]; quinolinic acid-treated striatal neurons,block the ability of BDNF and BD2-4 to prevent death
same,"effect on cell survival, inhibitor alone",[1]; K252a (200 nM) versus culture medium alone,small effect on lowering cell survival
O=C(NCCO)c1cc(C(=O)NCCO)cc(C(=O)NCCO)c1 [Compound 4],TrkC activation (Trk phosphorylation at Y490),TrkC,do not activate TrkC
same,prevention of death of hippocampal neurons / neurotrophic effect,[3]; E16 hippocampal neurons,neurotrophic effects similar to that of BDNF; also recorded: prevents the death of E16 hippocampal neurons
same,EC50,[3],0.1 to 1 nM
same,Emax,[3],50 to 200%
same,TrkB activation (Trk phosphorylation at Y490),TrkB,activate TrkB
same,TrkA activation (Trk phosphorylation at Y490),TrkA,not TrkA; also recorded: do not
same,blocking of Aβ-induced degeneration,[4],as effective as BDNF in blocking Aβ-induced degeneration
same,protection of DARP32-positive neurons,DARP32-positive neurons; quinolinic acid-induced death,protects DARP32-positive neurons with an efficacy similar to that of BDNF
same,effect on BDNF activity (partial agonism),[5],partial agonist of BDNF; also recorded: causes an inhibition of BDNF activity
same,block of death-inducing activity of MPP+,[1]; MPP+ 100 μM,significantly blocked to a similar extent
CC(=O)Nc1ccc(/C=C(\C#N)c2nn(CCO)c(N)c2C#N)cc1 [Compound 3],EC50,[3],0.1 to 1 nM
same,Emax,[3],50 to 200%
COc1ccc(-c2csc(N/N=C/c3ccc(O)cc3O)n2)cc1 [Compound 24],blocking of Aβ-induced degeneration,[4],as effective as BDNF in blocking Aβ-induced degeneration
"CC[C@H](C)[C@H](N)C(=O)NCCN1CCOCC1 [LM11A-31, reference compound]",blocking of Aβ-induced degeneration,[4],blocked Aβ-induced degeneration
same,blocking activity in combination with NGF,"[4]; LM11A-31 100 nM plus NGF 100 ng/mL, 10 μM Aβ1-42",blocked by NGF
COC(=O)C(Cc1c[nH]c2ccccc12)NC(=O)C(Cc1c[nH]cn1)NC(=O)C1CCC(=O)N1 (stereo not drawn) [Compound 1] ([pGlu]-His-Trp-OMe; configuration not given here),EC50,[3],0.1 to 1 nM
same,Emax,[3],50 to 200%
NC(=O)NN=C1c2cc(S(=O)(=O)NCCO)ccc2-c2ccc(S(=O)(=O)NCCO)cc21 [Compound 2],EC50,[3],0.1 to 1 nM
same,Emax,[3],50 to 200%
O=C(O)c1cccnc1C(=O)O [quinolinic acid],death of neurons,[2]; quinolinic acid at 7.5 mM versus culture medium alone,approximately 50%
